Experiments:
Assay type in all cases: in vivo
Design in all cases: key: 5=81-100%; 4=61-80%; 3=41-60%; 2=21-40%; 1=1-20%; 0=no damage to the plant; -=not tested
[1] = tested on: Amaranthus retoflexus (AMARE); assay: Pre-emergence test, herbicidal damage; conditions: 1000 g/ha unless otherwise stated, evaluated after 13 days, five-point scale
[2] = tested on: Echinochloa crus-galli (ECHCG); assay: Pre-emergence test, herbicidal damage; conditions: 1000 g/ha unless otherwise stated, evaluated after 13 days, five-point scale
Setaria faberi (SETFA) [3] = assay: Pre-emergence test, herbicidal damage; conditions: 1000 g/ha unless otherwise stated, evaluated after 13 days, five-point scale
[4] = tested on: Amaranthus palmeri (AMAPA); assay: Pre-emergence test, herbicidal damage; conditions: 1000 g/ha unless otherwise stated, evaluated after 13 days, five-point scale
Zea mays (ZEAMX) [5] = assay: Pre-emergence test, herbicidal damage; conditions: 1000 g/ha unless otherwise stated, evaluated after 13 days, five-point scale
[6] = tested on: Amaranthus retoflexus (AMARE); assay: Post-emergence test, herbicidal damage; conditions: sprayed after 8 days cultivation, 1000 g/ha unless otherwise stated, evaluated after 13 days, five-point scale
Description: (§1) Seeds of a variety of test species are sown in standard soil in pots Amaranthus palmeri (AMAPA), (Amaranthus retoflexus (AMARE), Echinochloa crus-galli (ECHCG), Zea mays (ZEAMX), Ipomoea 5 hederacea (IPOHE), and Setaria faberi (SETFA). After 8 days cultivation under controlled conditions in a glasshouse (at 24° C./16° C., day/night; 14 hours light; 65% humidity), the plants are sprayed with an aqueous spray solution derived from the formulation of the technical active ingredient in acetone/water (50:50) solution containing 0.5% Tween 20 (polyoxyethelyene sorbitan monolaurate, CAS RN 9005-64-5). Compounds are applied at 1000 g/ha unless otherwise stated. The test plants are then grown in a glasshouse under controlled conditions in a glasshouse (at 24° C./16° C., day/night; 14 hours light; 65% humidity) and watered twice daily. After 13 days the test is evaluated for the percentage damage caused to the plant. The biological activities are shown in the following table on a five-point scale (5=81-100%; 4=61-80%; 3=41-60%; 2=21-40%; 1=1-20%; 0=no damage to the plant; -=not tested).

[7] = tested on: Amaranthus palmeri (AMAPA); assay: Post-emergence test, herbicidal damage; conditions: sprayed after 8 days cultivation, 1000 g/ha unless otherwise stated, evaluated after 13 days, five-point scale
Description: as §1

Setaria faberi (SETFA) [8] = assay: Post-emergence test, herbicidal damage; conditions: sprayed after 8 days cultivation, 1000 g/ha unless otherwise stated, evaluated after 13 days, five-point scale
Description: as §1

Zea mays (ZEAMX) [9] = assay: Post-emergence test, herbicidal damage; conditions: sprayed after 8 days cultivation, 1000 g/ha unless otherwise stated, evaluated after 13 days, five-point scale
Description: as §1

[10] = tested on: Echinochloa crus-galli (ECHCG); assay: Post-emergence test, herbicidal damage; conditions: sprayed after 8 days cultivation, 1000 g/ha unless otherwise stated, evaluated after 13 days, five-point scale
Description: as §1

[11] = tested on: Ipomoea hederacea (IPOHE); assay: Post-emergence test, herbicidal damage; conditions: sprayed after 8 days cultivation, 1000 g/ha unless otherwise stated, evaluated after 13 days, five-point scale
Description: as §1

[12] = tested on: Ipomoea hederacea (IPOHE); assay: Pre-emergence test, herbicidal damage; conditions: 1000 g/ha unless otherwise stated, evaluated after 13 days, five-point scale

SMILES | percentage damage caused to the plant, AMARE [1] | percentage damage caused to the plant, ECHCG [2] | percentage damage caused to the plant, SEFTA (Setaria faberi (SETFA) [3]) | percentage damage caused to the plant, AMAPA [4] | percentage damage caused to the plant, ZEAMX (Zea mays (ZEAMX) [5]) | percentage damage caused to the plant, AMARE [6] | percentage damage caused to the plant, AMAPA [7] | percentage damage caused to the plant, SEFTA (Setaria faberi (SETFA) [8]) | percentage damage caused to the plant, ZEAMX (Zea mays (ZEAMX) [9]) | percentage damage caused to the plant, ECHCG [10] | percentage damage caused to the plant, IPOHE [11] | percentage damage caused to the plant, IPOHE [12]
Cc1cc(-c2ccc(Cl)c(Cl)c2)c(C(=O)O)c(=O)n1-c1cccc(C(F)(F)F)c1F [Compound 17, 4-(3,4-dichlorophenyl)-1-[2-fluoro-3-(trifluoromethyl)phenyl]-6-methyl-2-oxo-pyridine-3-carboxylic acid] | 0 | 0 | 0 | 0 | 0 | 1 (1=1-20%) | 2 (2=21-40%) | 1 (1=1-20%) | 0 | 0 | 0 | 0
Cc1cc(-c2ccc(Cl)c(Cl)c2)c(C(=O)O)c(=O)n1-c1ncc(Cl)cc1F [Compound 18, 1-(5-chloro-3-fluoro-2-pyridyl)-4-(3,4-dichlorophenyl)-6-methyl-2-oxo-pyridine-3-carboxylic acid] | 0 | 0 | 0 | 0 | 0 | 0 | 1 (1=1-20%) | 0 | 1 (1=1-20%) | 1 (1=1-20%) | 1 (1=1-20%) | 0
Cc1cc(-c2ccc(Cl)c(Cl)c2)c(C(=O)O)c(=O)n1-c1ncc(Cl)cc1Cl [Compound 19, 4-(3,4-dichlorophenyl)-1-(3,5-dichloro-2-pyridyl)-6-methyl-2-oxo-pyridine-3-carboxylic acid] | 0 | 0 | 0 | 0 | 0 | 0 | 1 (1=1-20%) | 1 (1=1-20%) | 1 (1=1-20%) | 1 (1=1-20%) | 1 (1=1-20%) | 0
Cc1c(Cl)c(-c2ccc(Cl)c(Cl)c2)c(C(=O)O)c(=O)n1-c1ccc(F)cc1 [Compound 20, 5-chloro-4-(3,4-dichlorophenyl)-1-(4-fluorophenyl)-6-methyl-2-oxo-pyridine-3-carboxylic acid] | 4 (4=61-80%) | 1 (1=1-20%) | 2 (2=21-40%) | 5 (5=81-100%) | 0 | 4 (4=61-80%) | 5 (5=81-100%) | 4 (4=61-80%) | 4 (4=61-80%) | 2 (2=21-40%) | 2 (2=21-40%) | 1 (1=1-20%)
Cc1cc(-c2ccc(Cl)c(Cl)c2)c(C(=O)O)c(=O)n1Cc1ccc(Cl)cc1F [Compound 22, 1-[(4-chloro-2-fluoro-phenyl)methyl]-4-(3,4-dichlorophenyl)-6-methyl-2-oxo-pyridine-3-carboxylic acid] | 1 (1=1-20%) | 1 (1=1-20%) | 1 (1=1-20%) | 1 (1=1-20%) | 1 (1=1-20%) | 3 (3=41-60%) | 3 (3=41-60%) | 1 (1=1-20%) | 1 (1=1-20%) | 0 | 1 (1=1-20%) | 0
Cc1c(Cl)c(-c2ccc(Cl)c(Cl)c2)c(C(=O)O)c(=O)n1-c1cccc(C(F)(F)F)c1F [Compound 23, 5-chloro-4-(3,4-dichlorophenyl)-1-[2-fluoro-3-(trifluoromethyl)phenyl]-6-methyl-2-oxo-pyridine-3-carboxylic acid] | 4 (4=61-80%) | 1 (1=1-20%) | 1 (1=1-20%) | 4 (4=61-80%) | 0 | 4 (4=61-80%) | 4 (4=61-80%) | 1 (1=1-20%) | 1 (1=1-20%) | 1 (1=1-20%) | 1 (1=1-20%) | 0
Cc1c(Cl)c(-c2ccc(Cl)c(Cl)c2)c(C(=O)O)c(=O)n1-c1ccc(Cl)cc1F [Compound 25, 5-chloro-1-(4-chloro-2-fluoro-phenyl)-4-(3,4-dichlorophenyl)-6-methyl-2-oxo-pyridine-3-carboxylic acid] | 4 (4=61-80%) | 2 (2=21-40%) | 2 (2=21-40%) | 4 (4=61-80%) | 1 (1=1-20%) | 3 (3=41-60%) | 3 (3=41-60%) | 1 (1=1-20%) | 1 (1=1-20%) | 1 (1=1-20%) | 1 (1=1-20%) | 1 (1=1-20%)
Cc1c(-c2ccc(Cl)c(Cl)c2)c(C(=O)O)c(=O)n(-c2ccc(Cl)cc2F)c1C [Compound 26, 1-(4-chloro-2-fluoro-phenyl)-4-(3,4-dichlorophenyl)-5,6-dimethyl-2-oxo-pyridine-3-carboxylic acid] | 3 (3=41-60%) | 0 | 1 (1=1-20%) | 3 (3=41-60%) | 1 (1=1-20%) | 3 (3=41-60%) | 3 (3=41-60%) | 1 (1=1-20%) | 1 (1=1-20%) | 1 (1=1-20%) | 0 | 1 (1=1-20%)

From US20250289787A1, “HERBICIDAL 2-OXO-NICOTINIC ACID DERIVATIVES” (SYNGENTA CROP PROTECTION AG, priority 2022, published 2025)
